Publication PMC9860641, “Synthesis, In Vitro α-Glucosidase Inhibitory Activity and Molecular Docking Study of New Benzotriazole-Based Bis-Schiff Base Derivatives” (Pharmaceuticals, 2022)

Experiments:
α-glucosidase enzyme = α-glucosidase enzyme (Saccharomyces cerevisiae, UniProt P53341); type: biochemical
Description: To find out the α-glucosidase inhibition, kinetic studies were carried out using different concentrations of the inhibitors (0.0624, 0.3, 0.125, 0.4 mM) and different concentrations of substrate inhibitor (p-nitrophenol R-D maltoside NMP). Samples of 0.1, 0.2, 0.4, 0.8, and 1.0 mM (0.2 mg/mL) concentration were prepared in de-ionized water with the enzyme. PIPES buffer was used to adjust the pH of the solution. This solution was incubated for 30 min at 25 °C and the absorbance was recorded on an ELISA reader in 96-well plates. Kinetic parameters like Vmax, AICs, Km, and R2 were calculated using sigma plot enzyme kinetic software.

Sequence of α-glucosidase enzyme (P53341 whole entry): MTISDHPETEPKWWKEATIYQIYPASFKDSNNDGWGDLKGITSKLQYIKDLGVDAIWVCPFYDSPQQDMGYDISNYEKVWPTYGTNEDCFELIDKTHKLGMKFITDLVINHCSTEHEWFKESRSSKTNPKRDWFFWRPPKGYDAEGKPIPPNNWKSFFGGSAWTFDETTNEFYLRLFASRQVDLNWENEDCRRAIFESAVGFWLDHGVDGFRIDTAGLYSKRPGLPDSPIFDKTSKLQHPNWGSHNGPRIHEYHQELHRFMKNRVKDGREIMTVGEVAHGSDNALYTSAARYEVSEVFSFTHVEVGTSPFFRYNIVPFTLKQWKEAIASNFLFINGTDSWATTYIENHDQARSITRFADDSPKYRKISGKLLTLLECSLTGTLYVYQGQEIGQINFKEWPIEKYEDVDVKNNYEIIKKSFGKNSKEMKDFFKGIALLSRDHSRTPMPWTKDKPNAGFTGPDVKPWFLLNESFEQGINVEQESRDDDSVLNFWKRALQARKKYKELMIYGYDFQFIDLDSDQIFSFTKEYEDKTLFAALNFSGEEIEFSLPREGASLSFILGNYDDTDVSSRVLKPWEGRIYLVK

| Compound | melting point | further results |
| --- | --- | --- |
| O=[N+]([O-])c1cccc(/C=N/N=C(/Cn2nnc3ccccc32)c2ccc(Br)cc2)c1 [Compound 3, 1-((E)-2-(4-bromophenyl)-2-(((E)-3-nitrobenzylidene)hydrazono)ethyl)-1H-benzo[d] [1,2, 3]triazole] | 196 to 197 °C | – |
| Brc1ccc(/C(Cn2nnc3ccccc32)=N\N=C\c2ccc3ccccc3c2)cc1 [Compound 7, 1-((E)-2-(4-bromophenyl)-2-(((E)-naphthalen-2-ylmethylene)hydrazono)ethyl)-1H-benzo[d] [1,2, 3]triazole] | 196 to 197 °C | potency against α-glucosidase compared with standard acarbose (in words) (α-glucosidase enzyme): less potent than standard acarbose |
| O=[N+]([O-])c1cccc(/C(Cn2nnc3ccccc32)=N\N=C\c2cc(Cl)cc(Cl)c2O)c1 [Compound 9, 2-((E)-(((E)-2-(1H-benzo[d][1,2, 3]triazol-1-yl)-1-(3-nitrophenyl)ethylidene) hydrazono)methyl)-4,6-dichlorophenol] | 197 to 198 °C | potency relative to standard acarbose (fold greater) (α-glucosidase enzyme; compared to standard acarbose): nine-fold |
| Brc1ccc(/C(Cn2nnc3ccccc32)=N\N=C\c2c3ccccc3cc3ccccc23)cc1 [Compound 4, 1-((E)-2-(((E)-anthracen-9-ylmethylene)hydrazono)-2-(4-bromophenyl)ethyl)-1H-benzo[d] [1,2, 3]triazole] | 201 to 202 °C | potency against α-glucosidase compared with standard acarbose (in words) (α-glucosidase enzyme): less potent than standard acarbose |
| O=[N+]([O-])c1ccc(/C(Cn2nnc3ccccc32)=N\N=C\c2cccc([N+](=O)[O-])c2)cc1 [Compound 11, 1-((E)-2-(((E)-3-nitrobenzylidene)hydrazono)-2-(4-nitrophenyl)ethyl)-1H-benzo[d] [1,2, 3]triazole] | 191 to 192 °C | – |
| Oc1c(Cl)cc(Cl)cc1/C=N/N=C(/Cn1nnc2ccccc21)c1ccc(Br)cc1 [Compound 5, 2-((E)-(((E)-2-(1H-benzo[d][1,2, 3]triazol-1-yl)-1-(4-bromophenyl)ethylidene) hydrazono)methyl)-4,6-dichlorophenol] | 196 to 197 °C | fold lowering of enzymatic activity relative to scaffold (10) (α-glucosidase enzyme; comparator scaffold 10): four-fold |
| Oc1c(Cl)cc(Cl)cc1/C=N/N=C(/Cn1nnc2ccccc21)c1ccc(Cl)cc1Cl [Compound 13, 2-((E)-(((E)-2-(1H-benzo[d][1,2, 3]triazol-1-yl)-1-(2,4-dichlorophenyl)ethylidene) hydrazono)methyl)-4,6-dichlorophenol] | 199 to 200 °C | fold enhancement of α-glucosidase activity relative to compound (1) (α-glucosidase enzyme; comparator compound 1): three-fold |
| COc1cccc(/C(Cn2nnc3ccccc32)=N\N=C\c2cc(Cl)cc(Cl)c2O)c1 [Compound 1, 2-((E)-(((E)-2-(1H-benzo[d][1,2, 3]triazol-1-yl)-1-(3-methoxyphenyl)ethylidene) hydrazono)methyl)-4,6-dichlorophenol] | 195 to 196 °C | fold lower potency than compound (9) (α-glucosidase enzyme; comparator compound 9): four-fold |
| O=[N+]([O-])c1ccc(/C=N/N=C(/Cn2nnc3ccccc32)c2ccc(Br)cc2)cc1 [Compound 6, 1-((E)-2-(4-bromophenyl)-2-(((E)-4-nitrobenzylidene)hydrazono)ethyl)-1H-benzo[d] [1,2, 3]triazole] | 196 to 197 °C | potency relative to compound (3) (α-glucosidase enzyme; comparator compound 3): half |
| COc1cccc(/C(Cn2nnc3ccccc32)=N\N=C\c2cccc([N+](=O)[O-])c2)c1 [Compound 2, 1-((E)-2-(3-methoxyphenyl)-2-(((E)-3-nitrobenzylidene)hydrazono)ethyl)-1H-benzo[d] [1,2, 3]triazole] | 192 to 193 °C | fold lower potency than compound (12) (α-glucosidase enzyme; comparator compound 12): two-fold |
| O=[N+]([O-])c1ccc(/C=N/N=C(/Cn2nnc3ccccc32)c2ccc([N+](=O)[O-])cc2)cc1 [Compound 12, 1-((E)-2-(((E)-4-nitrobenzylidene)hydrazono)-2-(4-nitrophenyl)ethyl)-1H-benzo[d] [1,2, 3]triazole] | 191 to 192 °C | inhibition profile relative to scaffold (11) (α-glucosidase enzyme; comparator scaffold 11): half |
| O=Cc1ccc(/C=N/N=C(/Cn2nnc3ccccc32)c2ccc(Br)cc2)cc1 [Compound 8, 4-((E)-(((E)-2-(1H-benzo[d][1,2, 3]triazol-1-yl)-1-(4-bromophenyl)ethylidene) hydrazono)methyl)benzaldehyde] | 193 to 194 °C | potency against α-glucosidase compared with standard acarbose (in words) (α-glucosidase enzyme): less potent than standard acarbose |
| O=[N+]([O-])c1cccc(/C=N/N=C(/Cn2nnc3ccccc32)c2ccc(Cl)cc2Cl)c1 [Compound 14, 1-((E)-2-(2,4-dichlorophenyl)-2-(((E)-3-nitrobenzylidene)hydrazono)ethyl)-1H-benzo[d] [1,2, 3]triazole] | 194 to 195 °C | – |
| O=[N+]([O-])c1ccc(/C(Cn2nnc3ccccc32)=N\N=C\c2ccc(Cl)c(Cl)c2)cc1 [Compound 19, 1-((E)-2-(((E)-3,4-dichlorobenzylidene)hydrazono)-2-(4-nitrophenyl)ethyl)-1H-benzo[d] [1,2, 3]triazole] | 194 to 195 °C | – |
| O=[N+]([O-])c1ccc(/C=N/N=C(/Cn2nnc3ccccc32)c2ccc(Cl)cc2Cl)cc1 [Compound 15, 1-((E)-2-(2,4-dichlorophenyl)-2-(((E)-4-nitrobenzylidene)hydrazono)ethyl)-1H-benzo[d] [1,2, 3]triazole] | 194 to 195 °C | – |
| O=[N+]([O-])c1ccc(/C(Cn2nnc3ccccc32)=N\N=C\c2ccc(O)cc2)cc1 [Compound 20, 4-((E)-(((E)-2-(1H-benzo[d][1,2, 3]triazol-1-yl)-1-(4-nitrophenyl)ethylidene) hydrazono)methyl)phenol] | 190 to 191 °C | – |
| O=[N+]([O-])c1ccc(/C(Cn2nnc3ccccc32)=N\N=C\c2cc(Cl)cc(Cl)c2O)cc1 [Compound 10, 2-((E)-(((E)-2-(1H-benzo[d][1,2, 3]triazol-1-yl)-1-(4-nitrophenyl)ethylidene) hydrazono)methyl)-4,6-dichlorophenol] | 197 to 198 °C | – |
| Clc1ccc(/C=N/N=C(/Cn2nnc3ccccc32)c2ccc(Br)cc2)cc1Cl [Compound 17, 1-((E)-2-(4-bromophenyl)-2-(((E)-3,4-dichlorobenzylidene)hydrazono)ethyl)-1H-benzo[d] [1,2, 3]triazole] | 198 to 199 °C | potency against α-glucosidase compared with standard acarbose (in words) (α-glucosidase enzyme): less potent than standard acarbose |
